{"source": "patent US6555113B1", "about": "“Modulation of cholesteryl ester transfer protein (CETP) activity” (priority 1995, dated 2003)", "key": {"[1]": {"biological_target": "T1, recombinant human CETP (Homo sapiens, UniProt P11597)", "T1 sequence (P11597 18-493)": "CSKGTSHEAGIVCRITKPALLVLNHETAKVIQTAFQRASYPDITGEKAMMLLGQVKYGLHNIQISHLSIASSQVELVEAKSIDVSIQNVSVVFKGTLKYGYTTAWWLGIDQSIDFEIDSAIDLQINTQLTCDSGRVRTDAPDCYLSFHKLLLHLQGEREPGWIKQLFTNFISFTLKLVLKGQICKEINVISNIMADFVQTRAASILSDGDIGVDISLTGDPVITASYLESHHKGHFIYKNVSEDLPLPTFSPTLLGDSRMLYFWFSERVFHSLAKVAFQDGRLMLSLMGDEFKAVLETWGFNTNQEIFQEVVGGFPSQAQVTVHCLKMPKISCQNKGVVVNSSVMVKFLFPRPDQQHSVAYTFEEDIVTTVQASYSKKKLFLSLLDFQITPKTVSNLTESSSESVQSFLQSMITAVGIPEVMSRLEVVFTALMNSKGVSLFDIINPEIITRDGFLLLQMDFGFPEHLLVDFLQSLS", "details": "in vivo"}, "[2]": {"set-up": "species or system New Zealand White Rabbits", "details": "rabbit, in vivo"}, "[3]": {"biological_target": "T1, recombinant human CETP", "details": "in vivo", "remark": "listed apart in the source"}, "[4]": {"tested_on": "aortic atherosclerotic lesions", "assay": "Measurement of aortic atherosclerotic lesions in rabbits, cholesterol-fed model of atherosclerosis", "assay_type": "in vivo, New Zealand White Rabbits", "method": "The synthetic vaccine peptide (SEQ ID NO:2) of Example 1 above was injected into New Zealand White Rabbits to test the ability of the vaccine peptide to elicit an immune response against endogenous rabbit CETP and to protect or reduce development of atherosclerosis. Group I contained six rabbits (rb#1-#6), each of which was subjected to a protocol for administration of the vaccine peptide. Control Group II contained six rabbits (rb#7-12) that were vaccinated but not fed a high cholesterol diet. Control Group III contained six rabbits (rb#13-18) that were not vaccinated and not fed a high cholesterol diet. Control Group IV contained six rabbits (rb#19-24) that were not vaccinated but fed a high cholesterol diet. The high cholesterol diet was administered starting four weeks after a final boost with the vaccine and continued for a total of 17 weeks.\nOn Day 0, peptide (100 μg) was suspended in the RIBI™ adjuvant system (RIBI ImmunoChem Research, Inc., Hamilton, Mont.) according to manufacturer's instructions to a final volume of […], and each rabbit of Group I and II were injected at two intramuscular sites (250 μl per site), subcutaneously at two sites (100 μl per site), and six intradermal sites (50 μl per site). On Day 28, a boost (100 μg of peptide in RIBI™ adjuvant system) was administered as on Day 0. On Day 49, another boost (100 μg of peptide in RIBI™ adjuvant system) was administered as on Day 0. […]\nAortas were removed from all surviving rabbits (four in Groups I and IV, five in Group II, six in Group III) after 17 weeks (Day 196 from primary vaccination) on cholesterol supplemented diet in Groups I and IV and control diet (no cholesterol supplement) in Groups II and III. […] The lesions were measured and the data quantitated using a computer program (The Morphometer, Woods Hole Educational Associated, Woods Hole, Mass.)."}, "[5]": {"set-up": "species or system New Zealand White Rabbits", "details": "rabbit, in vivo", "remark": "listed apart in the source"}, "[6]": {"biological_target": "T1, recombinant human CETP", "details": "in vivo", "remark": "listed apart in the source"}}}
{"sequence": "CQYIKANSKFIGITEFGFPEHLLVDFLQSLS [SEQ ID NO:2]", "values": [{"measurement": "anti-CETP antibody that competed with Mab TP2 for binding to recombinant human CETP", "setting": "[1]", "value": "three of the six mice"}, {"measurement": "levels of HDL-C compared to pre-vaccination levels", "setting": "[2]", "value": "showed an increase"}, {"measurement": "inhibition of TP2 binding to CETP by plasma", "setting": "[3]", "value": "observed in plasma sample from two of the three rabbits"}, {"measurement": "size of atherosclerotic lesions compared to non-vaccinated animals", "setting": "[4]; Group I (vaccinated, cholesterol-supplemented diet) vs Group IV, 17 weeks on 0.25% cholesterol diet", "value": "statistically significant reduction"}, {"measurement": "average total area of the aorta covered by lesions", "setting": "[4]; Group I vaccinated animals, 17 weeks on cholesterol supplemented diet, Oil Red O staining", "value": 19, "unit": "%"}, {"measurement": "reduction of the area of atherosclerotic lesions", "setting": "[4]; animals fed cholesterol supplemented diets, vaccinated vs non-vaccinated", "value": "greater than 50%"}, {"measurement": "increase in HDL-C concentrations compared to prebleed plasma samples", "setting": "[5]", "value": "2 to 5", "unit": "fold"}, {"measurement": "plasma HDL concentrations over time", "setting": "[5]", "value": "increasing plasma HDL concentrations over time"}, {"measurement": "ratio of Non-HDL/HDL", "setting": "[5]", "value": "generally declined"}, {"measurement": "total cholesterol in plasma samples", "setting": "[5]", "value": "no significant difference"}, {"measurement": "titers of anti-CETP antibody by direct ELISA", "setting": "[6]", "value": "All Group I mice had significant titers"}]}
